Assay results as given in patent US20260159512A1, “BCAT2 INHIBITORS” (AGIOS PHARMACEUTICALS, INC., priority 2021, published 2026).

Legend:
BCAT2 [1] = molecular target: T1, BCAT2 (Homo sapiens, UniProt O15382); experiment: BCAT2 in vitro enzyme inhibition assay (resazurin/diaphorase-coupled fluorescence); type: biochemical; conditions: average where tested multiple times
T1 sequence (O15382 28-392): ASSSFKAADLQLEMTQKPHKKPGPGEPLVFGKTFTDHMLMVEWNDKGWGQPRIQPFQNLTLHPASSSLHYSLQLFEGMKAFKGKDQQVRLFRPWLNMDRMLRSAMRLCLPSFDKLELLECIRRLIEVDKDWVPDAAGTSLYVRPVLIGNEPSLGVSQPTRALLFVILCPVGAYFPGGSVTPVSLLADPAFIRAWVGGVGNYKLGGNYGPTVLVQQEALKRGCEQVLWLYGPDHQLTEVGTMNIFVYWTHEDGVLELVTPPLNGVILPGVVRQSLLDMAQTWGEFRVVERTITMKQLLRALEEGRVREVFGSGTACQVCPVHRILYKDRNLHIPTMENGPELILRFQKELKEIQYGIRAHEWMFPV
Procedure: BCAT2 In Vitro Enzyme Inhibition Assay
1.67× hBCAT2 Enzyme Mix: 0.33 μg/mL hBCAT2, 1× Buffer
2.5× Substrate Mix: 460 μM L-leucine, 420 μM α-KetoGlutarate, 10 U/mL glutamate dehydrogenase, 10 mM NAD, 30 μg/mL diaphorase, 20 μm Resazurin
BCAT2 enzyme stock solution was diluted to prepare a 1.67× hBCAT2 Enzyme Mix. 1 μL of test compound was first added to the reaction wells followed by 30 μL of 1.67× hBCAT2 Enzyme Mix and incubated at room temperature (25° C.) for one hour. Meanwhile the Substrate Mix was prepared. The reaction was initiated by the addition of 20 μL of the 2.5× Substrate Mix, bringing the final reaction mix of all components to 1×. Reactions were quenched after one hour by the addition of 25 μL of 6% SDS and reaction progress was measured via fluorescence read (Ex 540/Em 590).
Test Compound Preparation:
Test compounds were prepared at 50× final concentration in DMSO, 1 to 3 dilutions were made for 10 points. The compounds were added to the assay as a 1 to 50 dilution (1 μL in 50 μL) to yield a top assay final concentration of 100 μM, decreasing 3-fold for 10 points. Each compound dilution series test also included an assay max (1 μL DMSO Added in lieu of compound, Full Reaction Components Included) and Min (1 μL DMSO Added in lieu of compound, 30 μl of 1.67× hBCAT2 Enzyme Mix replated by 30 μL of 1× Buffer). All tests were performed in technical duplicate.
Where a compound was tested multiple times, the average value of the tests is reported.

BCAT2 [2] = molecular target: T1, BCAT2; experiment: BCAT2 in vitro cell inhibition using engineered A549 cells (KMV cell assay, 13C6-KMV by LC-MS/MS); type: cell-based; parameters: The result was an engineered A549 cell line that expressed endogenous BCAT2; endogenous in cells; host or cells: A549 cells with MUT and BCAT1 knocked out by CRISPR/CAS9; key to BCAT2 Cell Inhibition: A: less than or equal to 0.100 μM; B: greater than 0.100 and less than or equal to 0.500 μM; C: greater than 0.500 and less than or equal to 1.000 μM; d: greater than 1.000 μM; E: no fit; conditions: average where tested multiple times

| Structure (SMILES) | IC50 (BCAT2 [1]) [µM] | IC50 (BCAT2 [2]) [µM] | BCAT2 Cell Inhibition (BCAT2 [2]) |
| --- | --- | --- | --- |
| O=C(N[C@@H]1C[C@@H](O)C[C@H](n2c(-c3ccccc3F)nc3cnc(-c4ncco4)cc32)C1)c1ncc(Cl)s1 [Example 261, 5-chloro-N-((1S,3R,5R)-3-(2-(2-fluorophenyl)-6-(oxazol-2-yl)-1H-imidazo[4,5-c]pyridin-1-yl)-5-hydroxycyclohexyl)thiazole-2-carboxamide] | 0.1 to 0.5 | > 1 | – |
| O=C(N[C@@H]1C[C@@H](O)C[C@H](n2c(-c3ccccc3F)nc3cnc(-c4ccccn4)cc32)C1)c1ncc(Cl)s1 [Example 253, 5-chloro-N-((1S,3R,5R)-3-(2-(2-fluorophenyl)-6-(pyridin-2-yl)-1H-imidazo[4,5-c]pyridin-1-yl)-5-hydroxycyclohexyl)thiazole-2-carboxamide] | 0.1 to 0.5 | 0.1 to 0.5 | – |
| CC(C)Cc1nc2cnc(-n3nccn3)cc2n1[C@@H]1COC[C@H](NC(=O)c2ccc(Cl)s2)C1 (single isomer, unassigned) [Example 140] | > 1 | – | E |
| Cc1cnn(-c2cc3c(cn2)nc(-c2ccccc2F)n3[C@H]2CCC[C@@H](NC(=O)c3ncc(Cl)s3)[C@@H]2O)n1 [Example 247, 5-chloro-N-((1R,2S,3S)-3-(2-(2-fluorophenyl)-6-(4-methyl-2H-1,2,3-triazol-2-yl)-1H-imidazo[4,5-c]pyridin-1-yl)-2-hydroxycyclohexyl)thiazole-2-carboxamide] | 0.5 to 1 | 0.5 to 1 | – |
| O=C(N[C@@H]1C[C@@H](O)C[C@H](n2c(-c3ccccc3F)nc3cnc(-c4ccn[nH]4)cc32)C1)c1ncc(Cl)s1 (single isomer, unassigned) [Example 259] | 0.1 to 0.5 | > 1 | – |
| CC(C)Cc1nc2cnc(N3CCC[C@@H]3C(N)=O)cc2n1[C@@H]1CCC[C@H](NC(=O)c2ncc(Cl)s2)C1 [Example 308, N-((1S,3R)-3-(6-((R)-2-carbamoylpyrrolidin-1-yl)-2-isobutyl-1H-imidazo[4,5-c]pyridin-1-yl)cyclohexyl)-5-chlorothiazole-2-carboxamide] | > 1 | – | E |
| CO[C@H]1C[C@H](NC(=O)c2ncc(Cl)s2)C[C@H](n2c(-c3ccccc3F)nc3cnc(-n4cncn4)cc32)C1 (stereo in doubt) [Example 415, 5-chloro-N-((1R,3S,5S)-3-(2-(2-fluorophenyl)-6-(1H-1,2,4-triazol-1-yl)-1H-imidazo[4,5-c]pyridin-1-yl)-5-methoxycyclohexyl)thiazole-2-carboxamide] | > 1 | – | E |
| CC(C)Cc1nc2cnc(-c3ccccc3CC#N)cc2n1[C@@H]1CCC[C@H](NC(=O)c2ncc(Cl)s2)C1 [Example 333, 5-chloro-N-((1S,3R)-3-(6-(2-(cyanomethyl)phenyl)-2-isobutyl-1H-imidazo[4,5-c]pyridin-1-yl)cyclohexyl)thiazole-2-carboxamide] | > 1 | – | E |
| CNC(=O)c1ccc2c(c1)nc(-c1ccccn1)n2C1CC(O)CC(NC(=O)c2ncc(C(F)F)s2)C1 (stereo not drawn) [Example 294, 5-(difluoromethyl)-N-(3-hydroxy-5-(5-(methylcarbamoyl)-2-(pyridin-2-yl)-1H-benzo[d]imidazol-1-yl)cyclohexyl)thiazole-2-carboxamide] | 0.5 to 1 | – | E |
| CO[C@@H]1C[C@@H](NC(=O)c2ncc(Cl)s2)C[C@@H](n2c(CC(C)C)nc3cnc(-n4cncn4)cc32)C1 [Example 418, 5-chloro-N-((1S,3R,5R)-3-(2-isobutyl-6-(1H-1,2,4-triazol-1-yl)-1H-imidazo[4,5-c]pyridin-1-yl)-5-methoxycyclohexyl)thiazole-2-carboxamide] | > 1 | – | E |
| CNC(=O)c1cc2nc(CC(C)C)n([C@H]3CCC[C@@H](NC(=O)c4ncc(Cl)s4)[C@@H]3O)c2cn1 [Example 279, 5-chloro-N-((1R,2S,3S)-2-hydroxy-3-(2-isobutyl-6-(methylcarbamoyl)-3H-imidazo[4,5-c]pyridin-3-yl)cyclohexyl)thiazole-2-carboxamide] | > 1 | – | E |
| Nc1cc2c(cn1)nc(-c1ccccc1F)n2[C@H]1C[C@H](O)C[C@@H](NC(=O)c2ncc(Cl)s2)C1 [Example 269, N-((1S,3R,5R)-3-(6-amino-2-(2-fluorophenyl)-1H-imidazo[4,5-c]pyridin-1-yl)-5-hydroxycyclohexyl)-5-chlorothiazole-2-carboxamide] | > 1 | > 1 | – |
| CO[C@@H]1C[C@@H](NC(=O)c2ncc(Cl)s2)C[C@@H](n2c(-c3ncccc3F)nc3cnc(-c4nc[nH]n4)cc32)C1 (stereo in doubt) [Example 444, 5-chloro-N-((1S,3R,5R)-3-(2-(3-fluoropyridin-2-yl)-6-(1H-1,2,4-triazol-3-yl)-1H-imidazo[4,5-c]pyridin-1-yl)-5-methoxycyclohexyl)thiazole-2-carboxamide] | ≤ 0.1 | ≤ 0.1 | – |
| O=C(N[C@H]1CCC[C@@H](n2c(-c3ccccc3F)nc3cnc(C4CCCO4)cc32)C1)c1ncc(Cl)s1 (single isomer, unassigned) [Example 201] | 0.5 to 1 | – | E |
| CC(C)(C)Cc1nc2cnc(-n3nccn3)cc2n1[C@H]1CCC[C@@H](NC(=O)c2ccc(Cl)s2)[C@@H]1O [Example 388, 5-chloro-N-((1R,2S,3S)-2-hydroxy-3-(2-neopentyl-6-(2H-1,2,3-triazol-2-yl)-1H-imidazo[4,5-c]pyridin-1-yl)cyclohexyl)thiophene-2-carboxamide] | > 1 | – | E |
| O=C(N[C@H]1CCC[C@@H](n2c(CN3CCCCC3)nc3cnc(-n4nccn4)cc32)C1)c1ncc(C(F)F)s1 [Example 95, 5-(difluoromethyl)-N-((1S,3R)-3-(2-(piperidin-1-ylmethyl)-6-(2H-1,2,3-triazol-2-yl)-1H-imidazo[4,5-c]pyridin-1-yl)cyclohexyl)thiazole-2-carboxamide] | > 1 | – | E |
| CC(C)Cc1nc2cnc(-c3ccn(C(F)F)n3)cc2n1[C@H]1CCC[C@@H](NC(=O)c2ncc(Cl)s2)[C@@H]1O [Example 229, 5-chloro-N-((1R,2S,3S)-3-(6-(1-(difluoromethyl)-1H-pyrazol-3-yl)-2-isobutyl-1H-imidazo[4,5-c]pyridin-1-yl)-2-hydroxycyclohexyl)thiazole-2-carboxamide] | 0.5 to 1 | – | E |
| CO[C@@H]1C[C@@H](NC(=O)c2ncc(Cl)s2)C[C@@H](n2c(-c3ccccc3C#N)nc3cnc(-c4nc[nH]n4)cc32)C1 (stereo in doubt) [Example 446, 5-chloro-N-((1S,3R,5R)-3-(2-(2-cyanophenyl)-6-(1H-1,2,4-triazol-3-yl)-1H-imidazo[4,5-c]pyridin-1-yl)-5-methoxycyclohexyl)thiazole-2-carboxamide] | ≤ 0.1 | ≤ 0.1 | – |
| O=C(N[C@H]1CCC[C@@H](n2c(-c3ccccc3F)nc3cnc(C4CCCO4)cc32)C1)c1ncc(Cl)s1 (single isomer, unassigned) [Example 200] | 0.5 to 1 | – | E |
| CNc1cc2c(cn1)nc(-c1ccccc1F)n2[C@H]1C[C@H](O)C[C@@H](NC(=O)c2ncc(Cl)s2)C1 [Example 273, 5-chloro-N-((1S,3R,5R)-3-(2-(2-fluorophenyl)-6-(methylamino)-1H-imidazo[4,5-c]pyridin-1-yl)-5-hydroxycyclohexyl)thiazole-2-carboxamide] | 0.5 to 1 | – | E |
| O=C(N[C@H]1CCC[C@@H](n2c(-c3ccccc3F)nc3cnc(-c4nncn4C(F)F)cc32)C1)c1ncc(Cl)s1 [Example 377, 5-chloro-N-((1S,3R)-3-(6-(4-(difluoromethyl)-4H-1,2,4-triazol-3-yl)-2-(2-fluorophenyl)-1H-imidazo[4,5-c]pyridin-1-yl)cyclohexyl)thiazole-2-carboxamide] | 0.5 to 1 | > 1 | – |
